This note sets out measurements from patent US9234000B2, “Benzylamine derivatives as inhibitors of plasma kallikrein” (KalVista Pharmaceuticals Limited, priority 2011, dated 2016).

The structures appear in SMILES notation. Values after ≈ are worked out from the molar mass of the structure shown. Read-outs that look alike come from different tables or passages of the source.

Series [1] can be described thus: Determination of thermodynamic solubility in phosphate buffer. The class given is physicochemical. The conditions noted are these: ammonium phosphate buffer pH7.4, 290 mOsm, 37° C., nominal 1 mg/mL; for solubility at 1 h: pH 7.4, aqueous buffer, thermodynamic from solid, read-out: Solubility in PO4 buffer. The procedure: Determination of Thermodynamic Solubility in Phosphate Buffer
The thermodynamic solubility of compound was determined in Ammonium Phosphate Buffer (pH7.4, 290 mOsm). Compounds were made up at a nominal concentration of 1 mg/mL, vortexed then placed on a shaker for 1 h, 37° C. at approximately 950 rpm. Following incubation samples were transferred to eppendorf tubes and centrifuged at 15,000 g (r.c.f.) for 10 minutes at 37° C. The concentration of compound in the supernatant was determined by LC-MS/MS analysis using a calibration line prepared from a DMSO stock.

A further series deals with Human plasma kallikrein (Homo sapiens (Human), UniProt P03952). Kind of series: Determination of the IC50 for plasma kallikrein. The conditions noted are these: 37° C., read-out: IC50 (human PKal). The class given is biochemical. The essentials:
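Human plasma kallikrein incubated at 37° C with fluorogenic substrate H-DPro-Phe-Arg-AFC and varying compound concentrations. Initial reaction rate followed by absorbance change at 410 nm to give residual activity and IC50.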

Another series concerns the target Human KLK1 (Homo sapiens (Human), UniProt P06870). Put plainly: Determination of the IC50 for KLK1. The series is classed as biochemical. The conditions noted are these: Human KLK1, 37° C., substrate H-DVal-Leu-Arg-AFC. The essentials: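 hKLK1 + H-DVal-Leu-Arg-AFC, 37° C, varied cpd conc. Initial rate by A410 change → residual activity → IC50.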
A short description of another series: physchem. The conditions noted are these: pH 7. As to the method: Determination of the Kinetic Solubility in Phosphate Buffer
After shaking for approximately 30 seconds the reduction in light transmission of these samples, at 650 nm, was measured (Molecular Devices Spectromax UV/visible spectrophotometer). A second measurement was taken at approximately 30 seconds later.

[2] abbreviates: fluorogenic substrate H-DPro-Phe-Arg-AFC.

Chain of Human plasma kallikrein (P03952 391-638): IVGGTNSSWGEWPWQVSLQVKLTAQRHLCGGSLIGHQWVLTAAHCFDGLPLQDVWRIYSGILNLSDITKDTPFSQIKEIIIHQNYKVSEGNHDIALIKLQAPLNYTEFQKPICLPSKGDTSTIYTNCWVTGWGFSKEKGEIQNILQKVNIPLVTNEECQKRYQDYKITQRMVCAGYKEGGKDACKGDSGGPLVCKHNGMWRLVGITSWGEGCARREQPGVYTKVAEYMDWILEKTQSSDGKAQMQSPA
Chain of Human plasma kallikrein (P03952 20-390 partner): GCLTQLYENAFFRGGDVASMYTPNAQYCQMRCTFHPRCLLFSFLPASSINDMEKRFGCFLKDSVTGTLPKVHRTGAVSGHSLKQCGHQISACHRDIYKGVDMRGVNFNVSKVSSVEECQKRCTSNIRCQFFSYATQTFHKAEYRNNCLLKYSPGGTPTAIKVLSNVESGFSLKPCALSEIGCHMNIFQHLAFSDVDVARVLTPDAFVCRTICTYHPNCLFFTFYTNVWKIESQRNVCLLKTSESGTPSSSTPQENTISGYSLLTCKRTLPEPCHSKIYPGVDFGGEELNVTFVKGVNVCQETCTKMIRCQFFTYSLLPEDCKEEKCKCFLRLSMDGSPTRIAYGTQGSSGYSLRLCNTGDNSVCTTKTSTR
Chain of Human KLK1 (P06870 25-262): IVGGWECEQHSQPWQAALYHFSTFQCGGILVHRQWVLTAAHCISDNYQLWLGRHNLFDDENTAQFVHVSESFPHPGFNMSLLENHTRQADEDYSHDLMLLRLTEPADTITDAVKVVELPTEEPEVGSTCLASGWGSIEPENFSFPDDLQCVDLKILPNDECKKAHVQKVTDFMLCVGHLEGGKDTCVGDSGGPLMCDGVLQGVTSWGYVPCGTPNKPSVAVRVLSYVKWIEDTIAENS

As for `CCOc1ccc(C[C@@H](NC(=O)c2cccc(Cl)c2)C(=O)N[C@@H](Cc2ccccc2)C(=O)NCc2ccc(CN)cc2)cc1` [Example 88, N-[(R)-1-[(S)-1-(4-Aminomethyl-benzylcarbamoyl)-2-phenyl-ethylcarbamoyl]-2-(4-ethoxy-phenyl)-ethyl]-3-chloro-benzamide], in series [1], the solubility (in general, the dissolved amount per volume that the medium holds) at 1 h came out at 0.2 µg/mL (≈ 0.326 µM). Further, the figures for the IC50 on Human plasma kallikrein (substrate H-DPro-Phe-Arg-AFC) and against Human KLK1 (Table 13) were 90 nM and greater than 10000 nM, respectively.

Regarding `CCOc1ccc(C[C@@H](NC(=O)c2sccc2NC(C)=O)C(=O)N[C@@H](Cc2ccccc2)C(=O)NCc2ccc(CN)cc2)cc1` [Example 179, 3-Acetylamino-thiophene-2-carboxylic acid-[(R)-1-[(S)-1-(4-aminomethyl-benzylcarbamoyl)-2-phenyl-ethylcarbamoyl]-2-(4-ethoxy-phenyl)-ethyl]-amide], in series [1], the solubility at 1 h came out at 17.7 µg/mL (≈ 27.6 µM). Besides, the values for the 50% inhibitory concentration (IC50) on Human plasma kallikrein (substrate H-DPro-Phe-Arg-AFC) and on Human KLK1 (Table 13) were 22 nM and 7200 nM, respectively.

On to `CCOc1ccc(C[C@@H](NC(=O)c2cccnc2)C(=O)N[C@@H](Cc2ccccc2)C(=O)NCc2ccc(CN)cc2)cc1` [Example 70, N-[(R)-1-[(S)-1-(4-Aminomethyl-benzylcarbamoyl)-2-phenyl-ethylcarbamoyl]-2-(4-ethoxy-phenyl)-ethyl]-nicotinamide], for which the solubility at 1 h in series [1] worked out at 11.5 µg/mL (≈ 19.9 µM). Also, the values for the concentration for half-maximal inhibition (IC50) at Human plasma kallikrein (substrate H-DPro-Phe-Arg-AFC) and against Human KLK1 (Table 13) were 126 nM and 7500 nM, respectively.

For the molecule `CCOc1ccc(C[C@@H](NC(=O)c2ccccc2)C(=O)N[C@@H](Cc2ccccn2)C(=O)NCc2ccc(CN)cc2)cc1` [Example 140, N-[(R)-1-[(S)-1-(4-Aminomethyl-benzylcarbamoyl)-2-pyridin-2-yl-ethylcarbamoyl]-2-(4-ethoxy-phenyl)-ethyl]-benzamide], the solubility at 1 h in series [1] stood at 79.6 µg/mL (≈ 137 µM). Moreover, the half-inhibitory concentration (IC50) (usually the concentration needed to halve the response being measured) at Human plasma kallikrein (substrate H-DPro-Phe-Arg-AFC) was 45 nM; on Human KLK1 (Table 13), greater than 10000 nM.

On to `CCOc1ccc(C[C@@H](NC(=O)c2ccccc2)C(=O)N[C@@H](Cc2csc3ccccc23)C(=O)NCc2ccc(CN)cc2)cc1` [Example 153, N-[(R)-1-[(S)-1-(4-Aminomethyl-benzylcarbamoyl)-2-benzo[b]thiophen-3-yl-ethylcarbamoyl]-2-(4-ethoxy-phenyl)-ethyl]-benzamide], for which the solubility at 1 h in series [1] stood at 0.19 µg/mL (≈ 0.299 µM). For the same molecule, the values for the IC50 at Human plasma kallikrein (substrate H-DPro-Phe-Arg-AFC) and against Human KLK1 (Table 13) were 10 nM and greater than 10000 nM, respectively.

With `CCOc1ccc(C[C@@H](NC(=O)c2ccc(C)cc2)C(=O)N[C@@H](Cc2ccccc2)C(=O)NCc2ccc(CN)cc2)cc1` [Example 92, N-[(R)-1-[(S)-1-(4-Aminomethyl-benzylcarbamoyl)-2-phenyl-ethylcarbamoyl]-2-(4-ethoxy-phenyl)-ethyl]-4-methyl-benzamide], the solubility at 1 h in series [1] is 0.2 µg/mL (≈ 0.337 µM).

In the case of `CCOc1ccc(C[C@@H](NC(=O)c2ccccc2)C(=O)N[C@@H](Cc2c[nH]c3ccccc23)C(=O)NCc2ccc(CN)cc2)cc1` [Example 176, N-[(R)-1-[(S)-1-(4-Aminomethyl-benzylcarbamoyl)-2-(1H-indol-3-yl)-ethylcarbamoyl]-2-(4-ethoxy-phenyl)-ethyl]-benzamide], the solubility at 1 h in series [1] worked out at 2.28 µg/mL (≈ 3.69 µM).

For the molecule `CCOc1ccc(C[C@@H](NC(=O)c2ccc(OC)cc2)C(=O)N[C@@H](Cc2ccccc2)C(=O)NCc2ccc(CN)cc2)cc1` [Example 95, N-[(R)-1-[(S)-1-(4-Aminomethyl-benzylcarbamoyl)-2-phenyl-ethylcarbamoyl]-2-(4-ethoxy-phenyl)-ethyl]-4-methoxy-benzamide], the solubility at 1 h in series [1] came out at 2.05 µg/mL (≈ 3.37 µM).

`CCOc1ccc(C[C@@H](NC(=O)c2ccccc2)C(=O)N[C@@H](Cc2ccc(Cl)c(Cl)c2)C(=O)NCc2ccc(CN)cc2)cc1` [Example 141, N-[(R)-1-[(S)-1-(4-Aminomethyl-benzylcarbamoyl)-2-(3,4-dichloro-phenyl)-ethylcarbamoyl]-2-(4-ethoxy-phenyl)-ethyl]-benzamide]: the solubility at 1 h in series [1] was 0.15 µg/mL (≈ 0.232 µM). Moreover, the figures for the half-inhibitory concentration (IC50) at Human plasma kallikrein (substrate H-DPro-Phe-Arg-AFC) and against Human KLK1 (Table 13) were 55 nM and greater than 10000 nM, respectively.

For `CCOc1ccc(C[C@@H](NC(=O)c2sccc2C)C(=O)N[C@@H](Cc2cccnc2)C(=O)NCc2ccc(CN)cc2)cc1` [Example 181, 3-Methyl-thiophene-2-carboxylic acid [(R)-1-[(S)-1-(4-aminomethyl-benzylcarbamoyl)-2-pyridin-3-yl-ethylcarbamoyl]-2-(4-ethoxy-phenyl)-ethyl]-amide], the solubility at 1 h in series [1] is 61.6 µg/mL (≈ 103 µM). Moreover, the IC50 is 10 nM on Human plasma kallikrein (substrate H-DPro-Phe-Arg-AFC) and greater than 10000 nM on Human KLK1 (Table 13).

Consider `CCOc1ccc(C[C@@H](NC(=O)c2ccccc2)C(=O)N[C@@H](Cc2ccc(F)c(F)c2)C(=O)NCc2ccc(CN)cc2)cc1` [Example 200, N—[(R)-1-[(S)-1-(4-Aminomethyl-benzylcarbamoyl)-2-(3,4-difluoro-phenyl)-ethylcarbamoyl]-2-(4-ethoxy-phenyl)-ethyl]-benzamide], for which, in series [1], the solubility at 1 h came to 0.22 µg/mL (≈ 0.358 µM). The IC50 on Human plasma kallikrein (substrate H-DPro-Phe-Arg-AFC) amounted to 45 nM; on Human KLK1 (Table 13), 7600 nM.

With `CCOc1ccc(C[C@@H](NC(=O)c2ccccc2)C(=O)N[C@@H](Cc2ccc(F)cc2)C(=O)NCc2ccc(CN)cc2)cc1` [Example 143, N-[(R)-1-[(S)-1-(4-Aminomethyl-benzylcarbamoyl)-2-(4-fluoro-phenyl)-ethylcarbamoyl]-2-(4-ethoxy-phenyl)-ethyl]-benzamide], in series [1], the solubility at 1 h stood at 2.86 µg/mL (≈ 4.79 µM). Also, the concentration for half-maximal inhibition (IC50) on Human plasma kallikrein (substrate H-DPro-Phe-Arg-AFC) was 83 nM; against Human KLK1 (Table 13), greater than 10000 nM.

On to `CCOc1ccc(C[C@@H](NC(=O)c2ccccc2)C(=O)N[C@@H](Cc2ccsc2)C(=O)NCc2ccc(CN)cc2)cc1` [Example 151], for which the “solubility in PO4 buffer” value in series [1] (1 h) is 4.31 µg/mL (≈ 7.37 µM). Moreover, the 50% inhibitory concentration (IC50) was 9 nM on Human plasma kallikrein (substrate H-DPro-Phe-Arg-AFC) and greater than 10000 nM against Human KLK1 (Table 13).

With `CCCOc1ccc(C[C@@H](NC(=O)c2ccccc2)C(=O)N[C@@H](Cc2ccccc2)C(=O)NCc2ccc(CN)cc2)cc1` [Example 131, N-[(R)-1-[(S)-1-(4-Aminomethyl-benzylcarbamoyl)-2-phenyl-ethylcarbamoyl]-2-(4-propoxy-phenyl)-ethyl]-benzamide], the solubility at 1 h in series [1] is 0.56 µg/mL (≈ 0.945 µM).

In turn, `CCOc1ccc(C[C@@H](N)C(=O)N(C)[C@@H](Cc2ccccc2)C(=O)NCc2ccc(CN)cc2)cc1` [Example 25, (R)-2-Amino-N-[(S)-1-(4-aminomethyl-benzylcarbamoyl)-2-phenyl-ethyl]-3-(4-ethoxy-phenyl)-N-methyl-propionamide] returned a solubility in PO4 buffer in the series “physchem” greater than 235 µM. Moreover, the values for the IC50 at Human plasma kallikrein (setting [2]) and against Human KLK1 (Table 12) were 340 nM and 6300 nM, respectively.

In turn, `CN[C@H](CC1CCCCC1)C(=O)N[C@@H](Cc1ccccc1)C(=O)NCc1ccc(CN)cc1` [Example 33, (R)-N-[(S)-1-(4-Aminomethyl-benzylcarbamoyl)-2-phenyl-ethyl]-3-cyclohexyl-2-methylamino-propionamide] had a solubility in PO4 buffer in the series “physchem” greater than 235 µM. In addition, the IC50 on Human plasma kallikrein (setting [2]) was 1100 nM; at Human KLK1 (Table 12), greater than 10000 nM.

As for `CCCN[C@H](Cc1ccc(OCC)cc1)C(=O)N(C)[C@@H](Cc1ccccc1)C(=O)NCc1ccc(CN)cc1` [Example 35, (R)-N-[(S)-1-(4-Aminomethyl-benzylcarbamoyl)-2-phenyl-ethyl]-3-(4-ethoxy-phenyl)-N-methyl-2-propylamino-propionamide], in “physchem”, the solubility in PO4 buffer is greater than 235 µM. For the same molecule, the IC50 at Human plasma kallikrein (setting [2]) was 2000 nM; on Human KLK1 (Table 12) it was greater than 10000 nM.
